# Test results: patent US5196424A, “N-[2-amino-4-substituted[[(pyrrollo or pyrido)[2,3-d]pyrimidinyl]-alkyl]benzoyl]-L-glutamic acids” (priority 1992, dated 1993)
# Like-named read-outs stand apart in the source and are kept apart here.
# How the values were obtained:
# CCRF-CEM cells = assay: Growth inhibition of CCRF-CEM human leukemia cells, 72 h, Coulter counter (Table I); type: cell-based; settings: read-out: IC50, concentration required for 50% inhibition of growth
# Description: Cluster plates were prepared in duplicate with the compound at various concentrations ranging from 100 μg/ml to 0.005 μg/ml. Test compounds were dissolved initially in DMSO and further diluted with solvent to the desired concentration.
# 6C3HED lymphosarcoma = assay: In vivo test against transplanted 6C3HED (Gardner) lymphosarcoma in C3H mice (Table II)
# Description: The compounds were tested in C3H mice bearing a 6C3HED lymphosarcoma, also known as the Gardner lymphosarcoma (GLS). The 6C3HED lymphosarcoma was obtained from the Division of Cancer Treatment, National Cancer Institute, Tumor Bank, maintained at E. G. and G. Mason Research (Worcester, Massachusetts). First passage tumor was stored in liquid nitrogen using standard techniques. The transplanted tumor was reestablished from the Tumor Bank every six months or as needed. The tumor was maintained by serial passage twice weekly in C3H mice.
# In the procedure, the tumor was removed from passage animals and minced into 1- to 3-mm square fragments using sterile techniques. Tumor pieces were checked for sterility using both Antibiotic Medium 1 and Brain Heart Infusion (Difco, Detroit, Mich.). Recipient mice were shaved and tumor pieces were implanted subcutaneiously in the auxiliary region by trocar. Drug therapy on the appropriate schedule was initiated on the day after tumor implant. The compound being tested was mixed with 2.5 weight % of a polyoxyethylated oil known as "Emulphor EL 620" surfactant from GAF Chemicals Corporation (1:40 dilution of Empulphor in saline). All animals were weighed at the beginning and end of administration of the subject compounds. Food and water were provided ad libitum. The drug was administered in 0.5 ml of 2.5% Emulphor. Unless otherwise indicated, the compound was administered once per day for eight days. The tumor was measured the day after treatment ended with two dimensional measurements (width and length) of the tumor taken using digital electronic calipers interfaced to a microcomputer, J. F. Worzalla, et al., Investigational New Drugs, 8, 241-251 (1990). Tumor weights were calculated from these measurements using the following formula:
# (tumor weight in mg)=width in mm)^2 ×(length in mm)/2
# At least one control group of an equal number of mice was treated with the same volume of 2.5% Emulphor only.
# [1] = test system: C3H Mammary Adenocarcinoma; settings: Days 1,3,5,7,9
# [2] = target: T1, human dihydrofolate reductase (DHFR) (Homo sapiens, UniProt P00374); assay: Inhibition of isolated human dihydrofolate reductase (Table III); type: biochemical; settings: DHFR (5 × 10^-8 M); read-out: DHFR IC50, concentration required for 50% inhibition of enzyme activity
# T1 construct: was obtained from human leukemic lymphoblasts (WI-L2/M4 cells); endogenous in cells; host or cells: WI-L2/M4 human leukemic lymphoblasts; enzyme purified from the cells according to Delcamp et al., Biochemistry 22, 633-639 (1983)
# T1 sequence (P00374 1-187): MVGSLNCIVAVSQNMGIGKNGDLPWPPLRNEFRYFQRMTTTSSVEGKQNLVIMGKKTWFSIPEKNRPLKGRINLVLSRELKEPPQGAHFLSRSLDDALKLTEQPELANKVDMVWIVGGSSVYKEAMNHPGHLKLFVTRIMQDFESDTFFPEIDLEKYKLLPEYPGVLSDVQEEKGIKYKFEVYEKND
# dihydrofolic reducatase = settings: background statement; cited from earlier work
# [3] = CCRF-CEM cells, 72 h incubation
smiles,measurement,setting,value
"Nc1nc(Cl)c2c(CCc3ccc(C(=O)N[C@@H](CCC(=O)O)C(=O)O)cc3)c[nH]c2n1 [Example 1, N-[2-amino-4-chloro-[[pyrrolo[2,3-d]-pyrimidin-5-yl]-ethyl]benzoyl]-L-glutamic acid]",IC50,CCRF-CEM cells; [3],> 20 µg/mL
"Nc1nc(S)c2c(CCc3ccc(C(=O)N[C@@H](CCC(=O)O)C(=O)O)cc3)c[nH]c2n1 [Example 2, N-[2-amino-4-mercapto[[pyrrolo[2,3-d]-pyrimidin-5-yl]-ethyl]benzoyl]-L-glutamic acid]",IC50,CCRF-CEM cells; [3],0.032 µg/mL
"Nc1ncc2c(CCc3ccc(C(=O)N[C@@H](CCC(=O)O)C(=O)O)cc3)c[nH]c2n1 [Example 3, N-[2-amino-[[pyrrolo[2,3-d]-pyrimidin-5-yl]-ethyl]benzoyl]-L-glutamic acid]",IC50,CCRF-CEM cells; [3],0.019 µg/mL
"Nc1ncc2c(n1)NCC2CCc1ccc(C(=O)N[C@@H](CCC(=O)O)C(=O)O)cc1 (stereo partly drawn) [Example 4, N-[2-amino-[di-hydropyrrolo[2,3-d]pyrimidin-5-yl]-ethyl]benzoyl-L-glutamicacid]",% INH (percent inhibition of tumor),"6C3HED lymphosarcoma; 0.25 mg/kg, Dailyx8",0%
same,Toxic/Total,"6C3HED lymphosarcoma; 0.25 mg/kg, Dailyx8",0/10
same,% INH (percent inhibition of tumor),"6C3HED lymphosarcoma; 0.50 mg/kg, Dailyx8",1%
same,Toxic/Total,"6C3HED lymphosarcoma; 0.50 mg/kg, Dailyx8",0/10
same,Toxic/Total,"6C3HED lymphosarcoma; 1.00 mg/kg, Dailyx8",0/10
same,% INH (percent inhibition of tumor),"6C3HED lymphosarcoma; 2.00 mg/kg, Dailyx8",97%
same,Toxic/Total,"6C3HED lymphosarcoma; 2.00 mg/kg, Dailyx8",0/10
same,% INH (percent inhibition of tumor),"6C3HED lymphosarcoma; 2 mg/kg, Days 1,3,5,7",49%
same,Toxic/Total,"6C3HED lymphosarcoma; 2 mg/kg, Days 1,3,5,7",0/10
same,% INH (percent inhibition of tumor),"6C3HED lymphosarcoma; 4.00 mg/kg, Dailyx8",100%
same,Toxic/Total,"6C3HED lymphosarcoma; 4.00 mg/kg, Dailyx8",1/10
same,% INH (percent inhibition of tumor),"6C3HED lymphosarcoma; 4 mg/kg, Days 1,3,5,7",99%
same,Toxic/Total,"6C3HED lymphosarcoma; 4 mg/kg, Days 1,3,5,7",0/10
same,% INH (percent inhibition of tumor),"6C3HED lymphosarcoma; 6.25 mg/kg, Dailyx8",100%
same,Toxic/Total,"6C3HED lymphosarcoma; 6.25 mg/kg, Dailyx8",6/10
same,Toxic/Total,"6C3HED lymphosarcoma; 8 mg/kg, Days 1,3,5,7",0/10
same,% INH (percent inhibition of tumor),"6C3HED lymphosarcoma; 12.5 mg/kg, Dailyx8",100%
same,Toxic/Total,"6C3HED lymphosarcoma; 12.5 mg/kg, Dailyx8",8/10
same,% INH (percent inhibition of tumor),"6C3HED lymphosarcoma; 16 mg/kg, Days 1,3,5,7",100%
same,Toxic/Total,"6C3HED lymphosarcoma; 16 mg/kg, Days 1,3,5,7",0/10
same,Toxic/Total,"6C3HED lymphosarcoma; 25 mg/kg, Dailyx8",10/10
same,Toxic/Total,"6C3HED lymphosarcoma; 50 mg/kg, Dailyx8",10/10
same,IC50,CCRF-CEM cells; [3],0.005 µg/mL
same,Toxic/Total,[1]; 1 mg/kg,0/10
same,% INH (percent inhibition of tumor),[1]; 2 mg/kg,10%
same,Toxic/Total,[1]; 2 mg/kg,0/10
same,% INH (percent inhibition of tumor),[1]; 4 mg/kg,24%
same,Toxic/Total,[1]; 4 mg/kg,0/10
same,% INH (percent inhibition of tumor),[1]; 16 mg/kg,92%
same,% INH (percent inhibition of tumor),[1]; 32 mg/kg,95%
same,IC50,[2],96 nM
"COc1nc(N)nc2[nH]cc(CCc3ccc(C(=O)N[C@@H](CCC(=O)O)C(=O)O)cc3)c12 [Example 5, N-[2-amino-4-methoxy[[pyrrolo[2,3-d]-pyrimidin-5-yl]-ethyl]benzoyl]-L-glutamic acid]",IC50,CCRF-CEM cells; [3],> 2 µg/mL
"CCN(CC)c1nc(N)nc2[nH]cc(CCc3ccc(C(=O)N[C@@H](CCC(=O)O)C(=O)O)cc3)c12 [Example 6, N-[2-amino-4-diethylamino-[[pyrrolo[2,3-d]-pyrimidin-5-yl]-ethyl]benzoyl]-L-glutamic acid]",IC50,CCRF-CEM cells; [3],0.9 µg/mL
"Nc1ncc2c(n1)NCC(CCc1ccc(C(=O)N[C@@H](CCC(=O)O)C(=O)O)cc1)C2 (stereo partly drawn) [Example 7, N-[2-amino-[[tetrahydropyrido[2,3-d]-pyrimidin-6-yl]-ethyl]benzoyl]-L-glutamic acid]",IC50,"CCRF-CEM cells; CCRF-CEM, 72 h",0.005 µg/mL
CN(Cc1cnc2nc(N)nc(N)c2n1)c1ccc(C(=O)N[C@@H](CCC(=O)O)C(=O)O)cc1 [amethopterin],"inhibition of the second reduction, from dihydrofolic acid to tetrahydrofolic acid",dihydrofolic reducatase,inhibit the second reduction
